Source: paper PMC11483378, “Triazole-Based Thiamine Analogues as Inhibitors of Thiamine Pyrophosphate-Dependent Enzymes: 1,3-Dicarboxylate for Metal Binding” (ACS Omega, 2024)
Read-outs that look alike come from different tables or passages of the source.

What was measured:
Porcine PDH E1 = target: T1, Porcine PDH E1 (Sus scrofa, UniProt P29804); assay: Porcine PDH E1 inhibitory activity assay (DCPIP reduction); assay type: biochemical; settings: for % Inhibition (5:1): [Compound] = 250 μM, [TPP] = 50 μM; for inhibition at 250 µM: [Compound] = [TPP] = 250 μM, read-out: % Inhibition (1:1); for vs TPP: affinity of the compound relative to that of TPP (= [TPP]/IC50) / IC50: [TPP] = 60 µM; for IC50: read-out: IC50 (μM ± SEM); for Ki: calculated from KM(TPP) 0.05 µM using [TPP]/IC50 = KM(TPP)/KI
T1 sequence (P29804 31-390): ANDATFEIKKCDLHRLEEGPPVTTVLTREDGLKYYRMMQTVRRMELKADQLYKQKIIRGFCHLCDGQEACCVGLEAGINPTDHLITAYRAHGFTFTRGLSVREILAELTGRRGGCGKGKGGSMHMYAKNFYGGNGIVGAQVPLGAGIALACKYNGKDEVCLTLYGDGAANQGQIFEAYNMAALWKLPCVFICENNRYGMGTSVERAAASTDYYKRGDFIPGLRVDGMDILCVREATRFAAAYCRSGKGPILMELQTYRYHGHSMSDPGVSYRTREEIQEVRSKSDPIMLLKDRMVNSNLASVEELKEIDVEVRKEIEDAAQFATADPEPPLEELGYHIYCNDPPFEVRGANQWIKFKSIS
Experimental: Porcine PDH E1 was purchased from Sigma. Porcine PDH E1 activity was determined by monitoring 2,6-dichlorophenolindophenol (DCPIP) reduction at 600 nm using a microplate reader (CLARIOstar) and conducted as described[5] with some modifications. […] The reaction buffer (50 mM KH2PO4 and 1 mM MgCl2, pH 7) contained thiamine pyrophosphate (TPP) at specified concentrations, 0.25 mM DCPIP, and 2 mg/mL porcine PDH E1. The reaction mixture was preincubated at 37 °C with the inhibitor for 30 min, and then the reaction was initiated by adding pyruvate to a final concentration of 50 mM. To determine the half-maximal inhibitory concentration (IC50), the TPP concentration was set at 60 μM with varying inhibitor concentrations. Specific activity was calculated using the molar extinction coefficient of DCPIP, 21 mM^–1 cm^–1.[28] The IC50 values were calculated from nonlinear regression curve fitting using GraphPad Prism.
Porcine PDH E1 inhibitory activity assay. Porcine PDH E1 was purchased from Sigma. Porcine PDH E1 activity was determined by monitoring 2,6-dichlorophenolindophenol (DCPIP) reduction at 600 nm using a microplate reader (CLARIOstar) and conducted as described3 with some modifications. The […]
buffer (50 mM KH2PO4 and 1 mM MgCl2, pH 7) contained thiamine pyrophosphate (TPP) at specified concentrations, 0.25 mM 2,6-dichlorophenolindophenol (DCPIP), and 2 mg/mL porcine PDH E1. The reaction mixture was preincubated at 37 °C with the inhibitor for 30 min, then reaction was initiated by adding pyruvate to a final concentration of 50 mM. To determine the half-maximal inhibitory concentration (IC50), TPP concentration was set at 60 µM with varying inhibitor concentrations. […]
values were calculated from non-linear regression curve fitting using GraphPad Prism. […]

E. coli OGDH E1 = E. coli OGDH E1 (Escherichia coli, UniProt P0AFG3); assay: E. coli OGDH E1 inhibitory activity assay (DCPIP reduction); assay type: biochemical
E. coli OGDH E1, sequence (P0AFG3 whole entry): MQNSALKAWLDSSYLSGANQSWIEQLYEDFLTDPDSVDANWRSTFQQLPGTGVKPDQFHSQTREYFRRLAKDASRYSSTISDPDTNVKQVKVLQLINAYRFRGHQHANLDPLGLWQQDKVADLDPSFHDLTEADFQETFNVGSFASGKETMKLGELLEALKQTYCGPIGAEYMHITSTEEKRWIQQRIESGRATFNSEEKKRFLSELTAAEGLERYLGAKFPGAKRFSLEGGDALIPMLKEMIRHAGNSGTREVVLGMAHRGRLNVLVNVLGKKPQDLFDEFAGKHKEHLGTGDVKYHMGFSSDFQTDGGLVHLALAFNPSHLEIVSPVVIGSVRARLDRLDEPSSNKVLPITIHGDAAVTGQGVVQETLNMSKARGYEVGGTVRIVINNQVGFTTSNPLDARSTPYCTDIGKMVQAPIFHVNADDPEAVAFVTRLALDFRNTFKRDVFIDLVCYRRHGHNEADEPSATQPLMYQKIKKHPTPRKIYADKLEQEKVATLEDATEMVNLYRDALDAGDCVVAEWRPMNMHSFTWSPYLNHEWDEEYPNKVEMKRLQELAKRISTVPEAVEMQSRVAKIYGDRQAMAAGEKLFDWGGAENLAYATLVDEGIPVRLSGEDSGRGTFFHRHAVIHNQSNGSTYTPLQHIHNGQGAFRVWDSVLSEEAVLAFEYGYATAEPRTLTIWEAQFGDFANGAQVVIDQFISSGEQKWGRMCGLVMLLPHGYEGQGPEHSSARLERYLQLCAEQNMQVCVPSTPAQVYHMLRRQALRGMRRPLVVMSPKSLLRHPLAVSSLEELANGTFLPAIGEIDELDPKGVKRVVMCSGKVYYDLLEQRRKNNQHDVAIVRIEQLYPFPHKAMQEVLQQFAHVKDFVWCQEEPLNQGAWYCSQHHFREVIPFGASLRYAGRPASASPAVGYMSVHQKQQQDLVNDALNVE
Experimental: E. coli OGDH E1 was from material donated by R. Frank. E. coli OGDH E1 activity was determined by monitoring DCPIP reduction at 600 nm using a microplate reader (CLARIOstar) and conducted as described[5] with some modifications. […] The reaction buffer (50 mM KH2PO4 and 2 mM MgCl2, pH 7) contained TPP at specified concentrations, 0.5 mM DCPIP, and 6.7 mg/mL E. coli OGDH E1. The reaction mixture was preincubated at 37 °C with the inhibitor for 60 min, and then the reaction was initiated by adding α-ketoglutarate to a final concentration of 10 mM. To determine the IC50, the TPP concentration was set at 60 μM with varying inhibitor concentrations. Specific activity was calculated using the molar extinction coefficient of DCPIP, 21 mM^–1 cm^–1.[28] The IC50 values were calculated from nonlinear regression curve fitting using GraphPad Prism.
Enzyme inhibitory activity assays – methods and results (Figures S1-4) […]
The compound […]
E. coli OGDH E1 inhibitory activity assay. E. coli OGDH E1 was from material donated by R. Frank. E. coli OGDH E1 activity was determined by monitoring DCPIP reduction at 600 nm using a microplate reader (CLARIOstar) and conducted as described3 with some modifications. The percentage inhibition of compounds against E. coli OGDH E1 was assayed at 250 μM. The reaction buffer (50 mM KH 2PO4 and 2 mM MgCl2, pH 7) contained TPP at specified concentrations, 0.5 mM DCPIP, and 6.7 mg/ml E. coli OGDH E1. The reaction mixture was preincubated at 37 °C with the inhibitor for 60 min, then reaction was initiated by adding α-ketoglutarate to a final concentration of 10 mM. To determine the IC50, TPP concentration was set at 60 µM with varying inhibitor concentrations. Specific activity was […]

[1] = [Compound] = 250 μM, [TPP] = 50 μM
[2] = [Compound] = [TPP] = 250 μM; read-out: % Inhibition (1:1)
[3] = [TPP] = 60 µM; read-out: IC50 (μM ± SEM)
[4] = calculated from KM(TPP) 3 µM using [TPP]/IC50 = KM(TPP)/KI; read-out: KI
[5] = calculated from KM(TPP) 3 µM using [TPP]/IC50 = KM(TPP)/KI
[6] = read-out: IC50 (μM ± SEM); [TPP] = 60 µM

## COC(=O)C(CCCc1cn(Cc2cnc(C)nc2N)nn1)C(=O)OC [13b]
Porcine PDH E1
  % Inhibition (5:1): 81 ± 4%
  inhibition at 250 µM: 48 ± 3%
  vs TPP: affinity of the compound relative to that of TPP (= [TPP]/IC50): 0.88
  IC50: 68 ± 9 µM
  Ki: 0.057 µM
E. coli OGDH E1; [1]
  % Inhibition (5:1): 54 ± 3%
E. coli OGDH E1; [2]
  inhibition at 250 µM: 23 ± 4%
E. coli OGDH E1; [TPP] = 60 µM
  vs TPP: affinity of the compound relative to that of TPP (= [TPP]/IC50): 0.24
E. coli OGDH E1; [3]
  IC50: 251 ± 37 µM
E. coli OGDH E1; [4]
  Ki: 13 µM

## COC(=O)C(CCc1cn(Cc2cnc(C)nc2N)nn1)C(=O)OC [13a]
Porcine PDH E1
  % Inhibition (5:1): 71 ± 3%
  inhibition at 250 µM: 36 ± 2%
  vs TPP: affinity of the compound relative to that of TPP (= [TPP]/IC50): 0.53
  IC50: 114 ± 15 µM
  Ki: 0.095 µM
E. coli OGDH E1; [1]
  % Inhibition (5:1): 40 ± 3%
E. coli OGDH E1; [2]
  inhibition at 250 µM: < 20%
E. coli OGDH E1; [TPP] = 60 µM
  vs TPP: affinity of the compound relative to that of TPP (= [TPP]/IC50): 0.15
E. coli OGDH E1; [3]
  IC50: 394 ± 65 µM
E. coli OGDH E1; [4]
  Ki: 20 µM

## Cc1ncc(Cn2cc(CCCC(=O)[O-])nn2)c(N)n1.[K+] [16a]
Porcine PDH E1
  % Inhibition (5:1): 75 ± 4%
  inhibition at 250 µM: 34 ± 3%
  vs TPP: affinity of the compound relative to that of TPP (= [TPP]/IC50): 0.54
  IC50: 111 ± 18 µM
  Ki: 0.093 µM
E. coli OGDH E1; [1]
  % Inhibition (5:1): 49 ± 3%
E. coli OGDH E1; [2]
  inhibition at 250 µM: < 20%
E. coli OGDH E1; [TPP] = 60 µM
  vs TPP: affinity of the compound relative to that of TPP (= [TPP]/IC50): 0.19
E. coli OGDH E1; [5]
  Ki: 16 µM
E. coli OGDH E1; [6]
  IC50: 316 ± 57 µM

## COC(=O)CCCc1cn(Cc2cnc(C)nc2N)nn1 [15a]
Porcine PDH E1
  % Inhibition (5:1): 65 ± 4%
  inhibition at 250 µM: 25 ± 4%
  vs TPP: affinity of the compound relative to that of TPP (= [TPP]/IC50): 0.36
  IC50: 167 ± 35 µM
  Ki: 0.14 µM
E. coli OGDH E1; [1]
  % Inhibition (5:1): 38 ± 3%
E. coli OGDH E1; [2]
  inhibition at 250 µM: < 20%
E. coli OGDH E1; [TPP] = 60 µM
  vs TPP: affinity of the compound relative to that of TPP (= [TPP]/IC50): 0.15
E. coli OGDH E1; [3]
  IC50: 407 ± 73 µM
E. coli OGDH E1; [4]
  Ki: 20 µM

## COC(=O)CCCCc1cn(Cc2cnc(C)nc2N)nn1 [15b]
Porcine PDH E1
  % Inhibition (5:1): 71 ± 4%
  inhibition at 250 µM: 31 ± 3%
  vs TPP: affinity of the compound relative to that of TPP (= [TPP]/IC50): 0.48
  IC50: 126 ± 28 µM
  Ki: 0.11 µM
E. coli OGDH E1; [1]
  % Inhibition (5:1): 42 ± 4%
E. coli OGDH E1; [2]
  inhibition at 250 µM: < 20%
E. coli OGDH E1; [TPP] = 60 µM
  vs TPP: affinity of the compound relative to that of TPP (= [TPP]/IC50): 0.17
E. coli OGDH E1; [3]
  IC50: 353 ± 29 µM
E. coli OGDH E1; [4]
  Ki: 18 µM

## Cc1ncc(Cn2cc(CCCC(C(=O)[O-])C(=O)[O-])nn2)c(N)n1.[K+].[K+] [14b]
Porcine PDH E1
  % Inhibition (5:1): > 90%
  inhibition at 250 µM: 72 ± 3%
  vs TPP: affinity of the compound relative to that of TPP (= [TPP]/IC50): 2.4
  IC50: 25 ± 6 µM
  Ki: 0.021 µM
E. coli OGDH E1; [1]
  % Inhibition (5:1): 83 ± 4%
E. coli OGDH E1; [2]
  inhibition at 250 µM: 47 ± 3%
E. coli OGDH E1; [TPP] = 60 µM
  vs TPP: affinity of the compound relative to that of TPP (= [TPP]/IC50): 0.90
E. coli OGDH E1; [5]
  Ki: 3.4 µM
E. coli OGDH E1; [6]
  IC50: 67 ± 9 µM

## Cc1ncc(Cn2cc(CCC(C(=O)[O-])C(=O)[O-])nn2)c(N)n1.[K+].[K+] [14a]
Porcine PDH E1
  % Inhibition (5:1): > 90%
  inhibition at 250 µM: 62 ± 3%
  vs TPP: affinity of the compound relative to that of TPP (= [TPP]/IC50): 1.62
  IC50: 37 ± 6 µM
  Ki: 0.031 µM
E. coli OGDH E1; [1]
  % Inhibition (5:1): 76 ± 5%
E. coli OGDH E1; [2]
  inhibition at 250 µM: 36 ± 4%
E. coli OGDH E1; [TPP] = 60 µM
  vs TPP: affinity of the compound relative to that of TPP (= [TPP]/IC50): 0.57
E. coli OGDH E1; [5]
  Ki: 5.3 µM
E. coli OGDH E1; [6]
  IC50: 105 ± 11 µM

## Cc1ncc(Cn2cc(CCCCC(=O)[O-])nn2)c(N)n1.[K+] [16b]
Porcine PDH E1
  % Inhibition (5:1): 77 ± 3%
  inhibition at 250 µM: 40 ± 3%
  vs TPP: affinity of the compound relative to that of TPP (= [TPP]/IC50): 0.65
  IC50: 92 ± 13 µM
  Ki: 0.077 µM
E. coli OGDH E1; [1]
  % Inhibition (5:1): 54 ± 4%
E. coli OGDH E1; [2]
  inhibition at 250 µM: 22 ± 5%
E. coli OGDH E1; [TPP] = 60 µM
  vs TPP: affinity of the compound relative to that of TPP (= [TPP]/IC50): 0.22
E. coli OGDH E1; [5]
  Ki: 14 µM
E. coli OGDH E1; [6]
  IC50: 273 ± 44 µM
